Laboratory results published in patent publication US20040024055A1, “Pharmaceutical composition containing the exract of saururus chinensis baill useful as an anticancer agent and a process for the preparation thereof” (priority 2000, published 2004).
In brackets after ≈: the same amount, converted by molar mass.

Legend:
NIH-3T3 [1] = assay: MTT analysis, cytotoxicity against normal cell line; type: cell-based, mouse; conditions: Mus musculus, NIH3T3; MTT, 48 hr
LoVo = assay: MTT analysis, anticancer activity; type: cell-based, human; conditions: Homo sapiens, LoVo; MTT, 48 hr
HT-29 = assay: MTT analysis, anticancer activity; type: cell-based, human; conditions: Homo sapiens, HT-29; MTT, 48 hr
CPAE = assay: MTT analysis, cytotoxicity against normal cell line; type: cell-based, bovine; conditions: Bos taurus; MTT, 48 hr
SK-OV-3 = assay: MTT analysis, anticancer activity; type: cell-based, human; conditions: Homo sapiens, SK-OV-3; MTT, 48 hr
BT-20 = assay: MTT analysis, anticancer activity; type: cell-based, human; conditions: Homo sapiens, BT-20, 48 hr
SK-MEL-28 [2] = assay: MTT analysis, anticancer activity; type: cell-based, human; conditions: Homo sapiens, SK-MEL-28, 48 hr
ME-180 = assay: MTT analysis, anticancer activity; type: cell-based, human; conditions: Homo sapiens, ME-180; MTT, 48 hr
[3] = tested on: SK-Hep-1 liver cancer cell line; assay: MTT analysis, anticancer activity; type: cell-based, human; conditions: Homo sapiens, SK-HEP1, 48 hr
Experimental: (§2) To be specific, SK-Hep-1 cell, which is liver cancer cell line, was added to 96-well microplate (Falcon, USA) with the concentration of 3×10^5 cells/ml by 100 μl per well. Each extracted and separated substance dissolved in DMSO was added to the well by 100 μl for the final concentration to be from 50 μg/ml to 0.0244 μg/ml, with 200 μl of final volume. Each cell was cultured for 48 hr in a culture medium of 37° C. and 5% CO2. After cultivation, 20 μl of phosphate buffer solution containing 5 mg/ml of MTT (3-[4,5-dimethylthiazol-2-yl]-2,5-diphenyltetrazoliumbromide, Sigma Co.) reagent was added to each well, and then cultured for 4 hr. After taking 100 μl of supernant from each culture medium, 100 μl of 0.04N hydrochloric acid-isopropanol was added. After letting alone overnight, absorbance was measured at 560 nm using automatic Eliza detector (Molecular Divices Corp., USA). Anticancer activity of each extracted and separated substance was calculated from the absorbance value by Equation 1 and was expressed in terms of cell.
(§3) Average Existence Rate(%)=(Absorbance of Treated Group)/(Absorbance of Control Group)×100

MCF-7 = assay: MTT analysis, anticancer activity; type: cell-based, human; conditions: Homo sapiens, MCF7; MTT, 48 hr; read-out: IC50 MCF-7
NIH-3T3 [4] = assay: Adhesion of cell to Collagen; type: cell-based, mouse
Experimental: (§1) After treating HNP-98701 on tissue culture plate coated with the matrices, cancer cell was attached thereupon. To be specific, 50 μl/ml of […], 2 μg/ml of laminin, 2 μg/ml of collagen and 2 μg/ml of gelatin were coated on the surface of 96-well microplate (Corning Co.) per well. After solidifying for 2 hr, HNP-98701 was added to each well and treated for 1 hr. […] After treating the substances for 1 hr, cancer cell was added to each cell, and it was cultured for 3 hr. […] After culturing these cell lines for 3 hr, they were centrifuged. After collecting biomass only, it was washed with distilled water or PBS buffer solution for three times. […] Then, absorbance was measured at 560-405 nm with automatic Eliza detector (Molecular […] Corp., USA). […] Each experiment was performed for three times repeatedly.

Hep-2 [5] = assay: MTT analysis, anticancer activity; type: cell-based, human; conditions: Homo sapiens, HEp-2; MTT, 48 hr; read-out: IC50 Hep-2
KATO-III = assay: MTT analysis, anticancer activity; type: cell-based, human; conditions: Homo sapiens, KATO III; MTT, 48 hr; read-out: IC50 KATO-III
T-47D = assay: MTT analysis, anticancer activity; type: cell-based, human; conditions: Homo sapiens, T47D, 48 hr
T98G = assay: MTT analysis, anticancer activity; type: cell-based, human; conditions: Homo sapiens, T98G, 48 hr
SK-Hep-1 [6] = assay: Adhesion of cancer cell to Laminin; type: cell-based, human
Experimental: as §1

Hep-2 [7] = assay: Adhesion of cancer cell to Laminin; type: cell-based, human
Experimental: as §1

SK-MEL-28 [8] = assay: Adhesion of cancer cell to Laminin; type: cell-based, human
Experimental: as §1

[9] = tested on: PC-3 prostate cancer cell line; assay: MTT analysis, anticancer activity; type: cell-based, human; conditions: Homo sapiens, 48 hr
HeLa = assay: MTT analysis, anticancer activity; type: cell-based, human; conditions: Homo sapiens, HeLa, 48 hr
CHO = assay: MTT analysis, cytotoxicity against normal cell line; type: cell-based, Chinese hamster; conditions: Cricetulus griseus, CHO; MTT, 48 hr
SK-BR-3 = assay: MTT analysis, anticancer activity; type: cell-based, human; conditions: Homo sapiens, SK-BR-3, 48 hr
NIH-3T3 [10] = assay: Adhesion of cell to Laminin; type: cell-based, mouse
Experimental: as §1

HS683 = assay: MTT analysis, anticancer activity; type: cell-based, human; conditions: Homo sapiens, Hs 683, 48 hr
SK-Hep-1 [11] = assay: Adhesion of cancer cell to Collagen; type: cell-based, human
Experimental: as §1

Hep-2 [12] = assay: Adhesion of cancer cell to Collagen; type: cell-based, human
Experimental: as §1

SK-MEL-28 [13] = assay: Adhesion of cancer cell to Collagen; type: cell-based, human
Experimental: as §1

SK-N-SH = assay: MTT analysis, anticancer activity; type: cell-based, human; conditions: Homo sapiens, SK-N-SH, 48 hr
SK-Hep-1 [14] = assay: Adhesion of cancer cell to Matri-Gel; type: cell-based, human
Experimental: as §1

[15] = tested on: DU-145 prostate cancer cell line; assay: MTT analysis, anticancer activity; type: cell-based, human; conditions: Homo sapiens, DU-145, 48 hr
Experimental: as §2, §3

A431 = assay: MTT analysis, anticancer activity; type: cell-based, human; conditions: Homo sapiens, A-431, 48 hr
HT1080 = assay: MTT analysis, anticancer activity; type: cell-based, human; conditions: Homo sapiens, HT-1080, 48 hr

IC50 (LoVo): 0.0538 µg/mL (≈ 0.099 µM) | IC50 (HT-29): 0.413 µg/mL (≈ 0.759 µM) | IC50 (SK-OV-3): > 50 µg/mL | IC50 (BT-20): 0.131 µg/mL (≈ 0.241 µM) | IC50 (SK-MEL-28 [2]): 0.75 µg/mL (≈ 1.38 µM) | IC50 (ME-180): 0.108 µg/mL (≈ 0.198 µM) | IC50 [3]: 0.282 µg/mL (≈ 0.518 µM) | IC50 (MCF-7): 0.134 µg/mL (≈ 0.247 µM) | IC50 (Hep-2 [5]): 0.087 µg/mL (≈ 0.16 µM) | IC50 (KATO-III): 0.342 µg/mL (≈ 0.628 µM) | IC50 (T-47D): 0.255 µg/mL (≈ 0.469 µM) | IC50 (T98G): 1.61 µg/mL (≈ 2.97 µM) | IC50 [9]: 0.575 µg/mL (≈ 1.06 µM) | IC50 (HeLa): 0.703 µg/mL (≈ 1.29 µM) | IC50 (SK-BR-3): 0.705 µg/mL (≈ 1.3 µM) | IC50 (HS683): 0.205 µg/mL (≈ 0.377 µM) | IC50 (SK-N-SH): 0.207 µg/mL (≈ 0.381 µM) | IC50 [15]: > 50 µg/mL | IC50 (A431): 0.0675 µg/mL (≈ 0.124 µM) | IC50 (HT1080): 0.719 µg/mL (≈ 1.32 µM)
SMILES: COc1cccc2c1C(=O)c1c(O)c3c(c(O)c1C2=O)C[C@@](O)(C(=O)CO)C[C@@H]3O[C@H]1C[C@H](N)[C@H](O)[C@H](C)O1 [Adriamycin, adriamycin (doxorubicin)]
IC50 (NIH-3T3 [1]): 0.496 µg/mL (≈ 0.913 µM) | IC50 (CPAE): 0.0208 µg/mL (≈ 0.0383 µM) | Adhesion NIH-3T3 (%) (NIH-3T3 [4]; 0.1 μg/ml): 111.98% | Adhesion NIH-3T3 (%) (NIH-3T3 [4]; 1 μg/ml): 109.97% | Adhesion NIH-3T3 (%) (NIH-3T3 [4]; 10 μg/ml): 111.13% | Adhesion SK-Hep-1 (%) (SK-Hep-1 [6]; 0.1 μg/ml): 96.18% | Adhesion SK-Hep-1 (%) (SK-Hep-1 [6]; 1 μg/ml): 96.92% | Adhesion SK-Hep-1 (%) (SK-Hep-1 [6]; 10 μg/ml): 95.86% | Adhesion Hep-2 (%) (Hep-2 [7]; 0.1 μg/ml): 106.76% | Adhesion Hep-2 (%) (Hep-2 [7]; 1 μg/ml): 105.13% | Adhesion Hep-2 (%) (Hep-2 [7]; 10 μg/ml): 98.75% | Adhesion SK-MEL-28 (%) (SK-MEL-28 [8]; 0.1 μg/ml): 108.40% | Adhesion SK-MEL-28 (%) (SK-MEL-28 [8]; 1 μg/ml): 109.66% | Adhesion SK-MEL-28 (%) (SK-MEL-28 [8]; 10 μg/ml): 113.03% | IC50 (CHO): 5.22 µg/mL (≈ 9.61 µM) | Adhesion NIH-3T3 (%) (NIH-3T3 [10]; 0.1 μg/ml): 107.38% | Adhesion NIH-3T3 (%) (NIH-3T3 [10]; 1 μg/ml): 103.07% | Adhesion NIH-3T3 (%) (NIH-3T3 [10]; 10 μg/ml): 91.63% | Adhesion SK-Hep-1 (%) (SK-Hep-1 [11]; 0.1 μg/ml): 98.83% | Adhesion SK-Hep-1 (%) (SK-Hep-1 [11]; 1 μg/ml): 97.89% | Adhesion SK-Hep-1 (%) (SK-Hep-1 [11]; 10 μg/ml): 103.28% | Adhesion Hep-2 (%) (Hep-2 [12]; 0.1 μg/ml): 91.10% | Adhesion Hep-2 (%) (Hep-2 [12]; 1 μg/ml): 93.11% | Adhesion Hep-2 (%) (Hep-2 [12]; 10 μg/ml): 88.85% | Adhesion SK-MEL-28 (%) (SK-MEL-28 [13]; 0.1 μg/ml): 94.27% | Adhesion SK-MEL-28 (%) (SK-MEL-28 [13]; 1 μg/ml): 94.49% | Adhesion SK-MEL-28 (%) (SK-MEL-28 [13]; 10 μg/ml): 94.71% | Adhesion SK-Hep-1 (%) (SK-Hep-1 [14]; 0.1 μg/ml): 99.04% | Adhesion SK-Hep-1 (%) (SK-Hep-1 [14]; 1 μg/ml): 95.93% | Adhesion SK-Hep-1 (%) (SK-Hep-1 [14]; 10 μg/ml): 88.74%
